Positions of bridges follow the written chain, without caps; N, C: chain ends. No end group written: not given here. FeTCPP = ferriporphyrin at the N-terminus; CAA = cis-aconitic anhydride moiety
Key:
786-O xenograft tumors = experiment: In vivo antitumor evaluation in large tumor model (786-O); parameters: species or system BALB/c nude mice; conditions: six i.v. injections at 2-days intervals, Gi-F-CAA 8 mg/kg, Bevacizumab 5 mg/kg
ζ-potential in PBS = format: physicochemical; conditions: 40 μM in PBS, pH 7.4; mean of n = 3
Protocol: Supplementary Fig. 12. ζ-potential change of Gi-F-CAA (40 μM) in PBS (0.01 M, pH 7.4 or 6.5) (n=3
experimental repeats). Experiment was independently repeated three times with similar results. Values are
(1 picture or pasted object on this page, not shown here)
Supplementary Fig. 13. ζ-potential of NGi-F-CAA, Gi-F and Gi-F-SA (pH 7.4) (40 μM) in PBS (n=3

EJ cells [1] = experiment: Cytotoxicity assay (CCK-8) on EJ cells
Protocol: Initially, EJ cells were seeded into 96 well plates at a density of 5 × 10^3 per well and incubated in a CO2 incubator overnight at 37 °C. Subsequently, Gi-F (pH = 7.4), Gi-F-SA (pH = 7.4), NGi-F-CAA (pH = 7.4), NGi-F-CAA (pH = 6.5), Gi-F-CAA (pH = 7.4) and Gi-F-CAA (pH = 6.5) at different concentrations (1, 2, 4, 8, 16, 32, 64, 128 and 256 μM) was added to the cells and further incubated for 48 h. Finally, the cell viability rate was calculated by (Sample wells-Blank wells)/(Control wells-Blank wells) × 100%.

EJ cells [2] = experiment: Intracellular GSH content detection; format: cell-based
Protocol: (§1) Initially, EJ cells (5 × 10^5) were cultured in 6-well plate with a CO2 incubator overnight at 37 °C. […] Next, EJ cells were collected and washed with PBS for 3 times. Afterwards, the cell lysates were collected by centrifugation at 8000 g for 10 min at 4 °C after lysed by freeze-thaw treatment. Finally, the GSH contents were measured with a GSH Assay Kit based on the manufacturer’s instructions.

EJ cells [3] = experiment: Intracellular Fe2+ ions detection; format: cell-based
Protocol: Initially, EJ cells (5 × 10^5) were cultured in confocal dish with a CO2 incubator overnight at 37 °C. […] Afterwards, EJ cells were washed with PBS for 3 times and replaced with culture mediums.

EJ cells [4] = experiment: Intracellular LPO content (MDA kit); format: cell-based
Protocol: as §1, with “the LPO” for “the GSH”, “measured by thiobarbituric acid (TBA) reaction” for “measured”, “a Malondialdehyde (MDA)” for “a GSH”

GPX4 [5] = target: T1, GPX4 (Homo sapiens, UniProt P36969); experiment: Intracellular GPX4 activity detection; format: cell-based; parameters: endogenous in cells; host or cells: EJ bladder cancer cells
T1 sequence (P36969 1-197): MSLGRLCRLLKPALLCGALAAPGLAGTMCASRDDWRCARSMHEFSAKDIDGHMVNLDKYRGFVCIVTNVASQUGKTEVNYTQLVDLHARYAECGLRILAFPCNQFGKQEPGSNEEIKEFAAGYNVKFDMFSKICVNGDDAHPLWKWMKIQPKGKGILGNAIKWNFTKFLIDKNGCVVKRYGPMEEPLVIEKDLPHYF
Protocol: as §1, with “5000 rpm” for “8000 g”, “ultrasonic lysis in an ice bath.” for “lysed by freeze-thaw treatment.”, “GPX4 activity” for “GSH contents”, “GPX” for “GSH”

[6] = system: MCF-7/MDR xenograft tumors; experiment: In vivo antitumor evaluation in MCF-7/MDR xenografted model; conditions: for mean tumor volume at 20 days post injection / TGI rate: MCF-7/MDR xenograft, Gi-F-CAA 8 mg/kg, DOX and CPT 3 mg/kg; for mean tumor volume at 20 days post injection: six i.v. injections every 2 days, n = 6; for TGI rate: six i.v. injections, 20 days
Excerpt: Female BALB/c nude mice (~8 weeks, 18 g) were subcutaneously inoculated with 5 × 10^6 MCF-7/MDR cells resuspended in Matrigel. […] Individual tumor volume and bodyweight of mouse after different treatment was collected at 2-days intervals for analysis. Mice were killed at 20 days post treatment unless endpoints were exceeded. Moreover, tumors from all groups were harvested under euthanasia and weighed for analysis at the end of treatment.

GPX4mu = conditions: one-to-one binding; ref Biochemical and Biophysical Research Communications. 2017, 482, 195e201; cited from earlier work
Protocol: page 12: Figure 9. […] The manuscript was revised accordingly. […] More explanation on this may be helpful. For instance, why small molecule inhibitors of GPX4 were not used? I suppose small molecules may penetrate tumor better since they are smaller. Beside ... || page 14: calculation of apparent Kd was added in the method section. Specifically, nanoparticles provide large surface area with exposed GPX4 target to achieve multivalent binding, which could remarkably enhance the binding affinity. This concept has been proven by several papers (Adv. Mater. 2023,35, 2211332; Adv Mater, 2023, doi: 10.1002/adma.202303831). […] Biophys. Res.

GPX4 [7] = conditions: ref Biochemical and Biophysical Research Communications. 2017, 482, 195e201, cited from earlier work; for GPX4 inhibitory effect at 100 μM: even at 100 μM
Excerpt: page 12: Figure 9. […] The manuscript was revised accordingly. […] More explanation on this may be helpful. For instance, why small molecule inhibitors of GPX4 were not used? I suppose small molecules may penetrate tumor better since they are smaller. Beside ...

Gi-F-CAA = target: T2, Gi-F-CAA (synthetic construct, disulfide 9-17 (inferred)); experiment: MST
T2 chain: FeTCPP-LKLKLK(CAA)GACNWLPLYPCPV

NGi-F-CAA = target: T3, NGi-F-CAA (synthetic construct, cysteine pairing not given here; also: cis-aconitic anhydride on Lys); experiment: MST
T3 chain: FeTCPP-LKLKLK(CAA)GACLNWPYLPCPV

Gi-F nanoparticle = target: T4, Gi-F nanoparticle (synthetic construct, disulfide 9-17 (inferred); also: self-assembled nanoparticle); experiment: MST
T4 chain: FeTCPP-LKLKLKGACNWLPLYPCPV

Bevacizumab: clinical antitumor drug Avastin (Bevacizumab) [reference compound]
tumor volume course in large tumors (~500 mm^3) (786-O xenograft tumors): temporary retarded growth and got out of control thereafter

FeTCPP-LKLKLK(CAA)GACLNWPYLPCPV (disulfide) [NGi-F-CAA]
Zeta potential (mV) (ζ-potential in PBS): -26.8 mV
IC50 (EJ cells [1]; pH 6.5): 111 µM
IC50 (EJ cells [1]; pH 7.4): 155 µM
Relative GSH levels (EJ cells [2]; pH=7.4, replicate #1): 0.912
Relative GSH levels (EJ cells [2]; pH=7.4, replicate #2): 0.883
Relative GSH levels (EJ cells [2]; pH=7.4, replicate #3): 1.029
intracellular Fe^2+ (FerroOrange fluorescence), pH 7.4 (EJ cells [3]; EJ cells, pH 7.4, 8 h): no remarkable fluorescence
Concentrations of Fe2+ ions (EJ cells [3]; pH=7.4, replicate #1): 17.875 ng/104cells
Concentrations of Fe2+ ions (EJ cells [3]; pH=7.4, replicate #2): 15.309 ng/104cells
Concentrations of Fe2+ ions (EJ cells [3]; pH=7.4, replicate #3): 13.004 ng/104cells
Relative MDA levels (EJ cells [4]; pH=7.4, replicate #1): 0.76
Relative MDA levels (EJ cells [4]; pH=7.4, replicate #2): 1.04
Relative MDA levels (EJ cells [4]; pH=7.4, replicate #3): 1.44
Relative activity of GPX4 (GPX4 [5]; EJ cells, 8 h, pH 7.4, PBS group normalized as 1, #1): 0.95
Relative activity of GPX4 (GPX4 [5]; EJ cells, 8 h, pH 7.4, PBS group normalized as 1, #2): 0.9
Relative activity of GPX4 (GPX4 [5]; EJ cells, 8 h, pH 7.4, PBS group normalized as 1, #3): 1.02
Relative activity of GPX4 (GPX4 [5]; pH=7.4, replicate #1): 0.94
Relative activity of GPX4 (GPX4 [5]; pH=7.4, replicate #2): 0.94
Relative activity of GPX4 (GPX4 [5]; pH=7.4, replicate #3): 1

CC[C@@]1(O)C(=O)OCc2c1cc1n(c2=O)Cc2cc3ccccc3nc2-1 [CPT]
mean tumor volume at 20 days post injection [6]: 1095 mm^3
TGI rate [6]: 39%
Tumor weight ([6]; mice 1): 0.95 g
Tumor weight ([6]; mice 2): 0.87 g
Tumor weight ([6]; mice 3): 1 g
Tumor weight ([6]; mice 4): 0.65 g
Tumor weight ([6]; mice 5): 0.9 g
Tumor weight ([6]; mice 6): 0.74 g

COc1cccc2c1C(=O)c1c(O)c3c(c(O)c1C2=O)C[C@@](O)(C(=O)CO)C[C@@H]3O[C@H]1C[C@H](N)[C@H](O)[C@H](C)O1 [DOX]
mean tumor volume at 20 days post injection [6]: 1082 mm^3
TGI rate [6]: 32%
Tumor weight ([6]; mice 1): 0.73 g
Tumor weight ([6]; mice 2): 1.18 g
Tumor weight ([6]; mice 4): 0.93 g
Tumor weight ([6]; mice 6): 0.69 g

CRAWYQNYCALRR [GXpep-2]
Kd (GPX4mu): 0.61 µM
GPX4 inhibitory effect at 100 μM (GPX4 [7]): did not have an inhibitory effect

CRVDLQGWRRCRR [GXpep-1]
Kd (GPX4mu): 1.8 µM
GPX4 inhibitory effect at 100 μM (GPX4 [7]): did not have an inhibitory effect

GACNWLPLYPCPV (disulfide 3-11 (inferred)) [GXpep-3]
Kd (GPX4mu): 8.2 µM
IC50 (GPX4 [7]; read-out: IC50, GPX4 inhibitory activity): 10 µM

B1: GPX4 (protein)
chain: SLGRLCRLLKPALLCGALAAPGLAGTMCASRDDWRCARSMHEFSAKDIDGHMVNLDKYRGFVCIVTNVASQUGKTEVNYTQLVDLHARYAECGLRILAFPCNQFGKQEPGSNEEIKEFAAGYNVKFDMFSKICVNGDDAHPLWKWMKIQPKGKGILGNAIKWNFTKFLIDKNGCVVKRYGPMEEPLVIEKDLPHYF
Kd (Gi-F-CAA): ~1.68 µM
Kd (NGi-F-CAA): ~17.6 µM
Kd (Gi-F nanoparticle): ~0.0303 µM
